# Test results as given in PMC7849180 (Frontiers in Pharmacology, 2020).
# Columns and labels:
# Ba/F3-EpoR cell line = assay: Cell activity of Ba/F3-EpoR cell line; assay type: cell-based; settings: read-out: IC50, inhibition of cell activity
# Excerpt: Suzhou Zelgen Biopharmaceuticals Co., Ltd. Jaktinib Hydrochloride Tablets Chemical Drug Class 1 New Drug and ZG0178. However, the inhibitory effect on the activity of Ba/F3-EpoR cell line […]
# respectively. Obviously, this selective inhibition is associated with the aberrant expression of JAK2 in Ba/F3-EpoR-JAK2V617F mutant cells, and the degree of ZG0163 inhibition on JAK-STAT signaling pathway in this cell line. […]
# cells, and the effects of ZG0163 was similar to those of positive control compounds, […]
# In Vitro Inhibitory Effect of ZG0128 on Cell Lines Transfected with Oncogenes and Primary Blood Cells in Patients with Polycythemia Vera
# In vitro cell culture assay was used to determine whether compound ZG0128 […]
# cell line harboring a JAK2V617F mutation, and 8 HCD-57 cell lines stably transfected with oncogenic mutations JAK2V617F, MPLW515L, KITD816V, NPM-ALK, FLT3-ITD, FLT3D835H, FLT3D835Y and KRasG12V, respectively. In addition, study the inhibitory effects of compound ZG0128 on the growth of hematopoietic progenitor cells in patients with polycythemia vera.
# 9 cell lines were similar to those of positive control drug ZG0192. At the sub-micromolar concentration, both compounds ZG0128 and ZG0192 were able to […]
# the growth of HCD-57 cells transfected with oncogenic mutations JAK2V617F, […]
# spectrum inhibitory effect on tyrosine kinases. […]
# [1] = Plasma pharmacokinetics, single ascending dose (SAD); assay type: in vivo, human; settings: for Cmax, geometric mean (CV%) / Tmax, median (min–max): fasting
# Protocol: In SAD part, volunteers were designed into eight SAD cohorts (25, 50, 100, 150, 200, 250, 300 and 400 mg). Among these cohorts, 25 mg was bisected by the 50 mg specification under good manufacturing practices (GMP) condition and provided the certificate of analysis. […] Jaktinib or placebo was administrated after an overnight fast.
# For MAD cohorts, blood samples were collected at 0, 0.25, 0.5, 1, 1.5, 2, 3, 4, 5, 6, 8 and 12 h on day 1; 0 h on day 2, 3, 4, 6 and 7; 0, 0.25, 0.5, 1, 1.5, 2, 3, 4, 5, 6, 8, 12, 24, 36 and 48 h on day 10. In food effect cohort, blood samples were collected at 0, 0.25, 0.5, 1, 1.5, 2, 3, 4, 5, 6, 8, 12, 24, 36, 48, 72, 96 and 120 h in period one of group A; 0, 0.25, 0.5, 1, 1.5, 2, 3, 4, 5, 6, 8, 12, 24, 36 and 48 h in period two of group A and the two periods of group B. Blood samples were centrifuged at 3,000 rpm for 10 min at 2–8 °C and stored at -80 °C until liquid chromatography-mass spectrophotometry (LC-MS/MS) analysis. Urine and feces samples were collected in period one of group A of food effect cohort with the intervals 0, 0–6, 6–12, 12–24, 24–48, 48–72, 72–96, 96–120 and 0–120 h, respectively. […]
# [2] = 25–400 mg, linear mixed effects model
substance,measurement,setting,value
Jaktinib,IC50,Ba/F3-EpoR cell line,1500 nM
same,slope (90% CI) for ln AUC0-∞ vs dose,[1]; [2],1.15 (0.96–1.34)
same,slope (90% CI) for ln Cmax vs dose,[1]; [2],1.00 (0.86–1.15)
same,"Cmax, geometric mean (CV%)",[1]; single 25 mg dose,34.50 (51.6) ng/ml
same,"Tmax, median (min–max)",[1]; single 25 mg dose,2.00 (1.00–4.00) h
same,"Cmax, geometric mean (CV%)",[1]; single 50 mg dose,77.56 (72.8) ng/ml
same,"Tmax, median (min–max)",[1]; single 50 mg dose,3.00 (0.50–5.00) h
same,"Cmax, geometric mean (CV%)",[1]; single 100 mg dose,183.48 (33.3) ng/ml
same,"Tmax, median (min–max)",[1]; single 100 mg dose,1.25 (0.50–3.00) h
same,"Cmax, geometric mean (CV%)",[1]; single 150 mg dose,297.18 (36.6) ng/ml
same,"Tmax, median (min–max)",[1]; single 150 mg dose,2.50 (1.50–4.00) h
same,"Cmax, geometric mean (CV%)",[1]; single 200 mg dose,354.52 (44.6) ng/ml
same,"Tmax, median (min–max)",[1]; single 200 mg dose,2.50 (1.00–3.00) h
same,"Cmax, geometric mean (CV%)",[1]; single 250 mg dose,404.20 (36.9) ng/ml
same,"Tmax, median (min–max)",[1]; single 250 mg dose,2.00 (1.00–4.00) h
same,"Cmax, geometric mean (CV%)",[1]; single 300 mg dose,510.54 (35.4) ng/ml
same,"Tmax, median (min–max)",[1]; single 300 mg dose,3.00 (0.50–5.00) h
same,"Cmax, geometric mean (CV%)",[1]; single 400 mg dose,579.35 (42.6) ng/ml
same,"Tmax, median (min–max)",[1]; single 400 mg dose,3.50 (2.00–5.00) h
same,"CL/F, range across cohorts",[1]; single dose 25–400 mg,76.212 to 150.190 L/h
same,"Vz/F, range across cohorts",[1]; single dose 25–400 mg,533.561 to 1033.554 L
same,"median Tmax, range across cohorts",[1]; single dose 25–400 mg jaktinib,1.25 to 3.5 h
same,"t1/2, range across cohorts",[1]; single dose 25–400 mg jaktinib,2.952 to 9.040 h
